# Measured values reported in PubChem BioAssay AID248 (DTP/NCI, 2004).
# Several values for one entry are separate records, joined by “and”; a condition that tells them apart may be missing. Equal values may be shown once. Inconclusive results and toxic doses are left out.
# System: L1210 leukemia ip in BDF1 mice, survival T/C
# Experiment: NCI In Vivo Anticancer Drug Screen. Data for tumor model L1210 Leukemia (intraperitoneal) in B6D2F1 (BDF1) mice
# Settings: endpoint: mean survival time, higher = longer survival
# Outline: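 In this screen, tumor-bearing mice given compound are compared to those given vehicle, and their survival values are reported as a treated-to-control quotient.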
# [1] = dose: 100.0 mg/kg/injection, schedule: Q04DX003 (ip), vehicle: Klucel (hydroxypropylcellulose) (HPC)
# [2] = dose: 200.0 mg/kg/injection, schedule: Q04DX003 (ip), vehicle: Klucel (hydroxypropylcellulose) (HPC)
# [3] = dose: 400.0 mg/kg/injection, schedule: Q04DX003 (ip), vehicle: Klucel (hydroxypropylcellulose) (HPC)
# [4] = dose: 100.0 mg/kg/injection, schedule: Q01DX009 (ip), vehicle: saline with Tween-80
# [5] = dose: 200.0 mg/kg/injection, schedule: Q01DX009 (ip), vehicle: saline with Tween-80
# [6] = dose: 400.0 mg/kg/injection, schedule: Q01DX009 (ip), vehicle: saline with Tween-80
# [7] = dose: 100.0 mg/kg/injection, schedule: Q04DX003 (ip), vehicle: saline with Tween-80
# [8] = dose: 200.0 mg/kg/injection, schedule: Q04DX003 (ip), vehicle: saline with Tween-80
# [9] = dose: 400.0 mg/kg/injection, schedule: Q04DX003 (ip), vehicle: saline with Tween-80
# [10] = dose: 100.0 mg/kg/injection, schedule: Q04DX003 (ip), vehicle: saline
# [11] = dose: 100.0 mg/kg/injection, schedule: Q01DX001 (ip), vehicle: carboxymethylcellulose (CMC)
# [12] = dose: 100.0 mg/kg/injection, schedule: Q04DX002 (ip), vehicle: saline with Tween-80
# [13] = dose: 200.0 mg/kg/injection, schedule: Q01DX001 (ip), vehicle: carboxymethylcellulose (CMC)
# [14] = dose: 400.0 mg/kg/injection, schedule: Q01DX001 (ip), vehicle: carboxymethylcellulose (CMC)
# [15] = dose: 75.0 mg/kg/injection, schedule: Q01DX009 (ip), vehicle: saline
# [16] = dose: 100.0 mg/kg/injection, schedule: Q01DX001 (ip), vehicle: saline
# [17] = dose: 200.0 mg/kg/injection, schedule: Q01DX001 (ip), vehicle: saline
# [18] = dose: 100.0 mg/kg/injection, schedule: Q04DX002 (ip), vehicle: saline
# [19] = dose: 200.0 mg/kg/injection, schedule: Q04DX002 (ip), vehicle: saline
smiles,measurement,setting,value
O=[N+]([O-])c1ccc(/C=C/c2ccccc2Br)cc1,T/C,"dose: 100.0 mg/kg/injection, schedule: Q01DX009 (ip), vehicle: Klucel (hydroxypropylcellulose) (HPC)",106 % of control
same,T/C,[1],100 % of control
same,T/C,"dose: 200.0 mg/kg/injection, schedule: Q01DX009 (ip), vehicle: Klucel (hydroxypropylcellulose) (HPC)",97 % of control
same,T/C,[2],98 % of control
same,T/C,"dose: 400.0 mg/kg/injection, schedule: Q01DX009 (ip), vehicle: Klucel (hydroxypropylcellulose) (HPC)",97 % of control
same,T/C,[3],98 % of control
CC(C)=C(CO)CCC(C)C,T/C,"dose: 50.0 mg/kg/injection, schedule: Q01DX009 (ip), vehicle: saline with Tween-80",100 % of control
same,T/C,[4],94 % of control
same,T/C,[5],89 % of control
O=C(O)C(Cl)(Br)C(Cl)c1ccccc1 (configuration not stated),T/C,[4],93 % of control
same,T/C,[5],91 % of control
same,T/C,[6],95 % of control
CCCC(C)(C)C(=O)Nc1cccc(O)c1,T/C,[7],95 % of control
same,T/C,[8],95 % of control
same,T/C,[9],92 % of control
COc1ccc(OC)c(CC(Cl)(C#N)C#N)c1,T/C,"dose: 12.0 mg/kg/injection, schedule: Q01DX009 (ip), vehicle: Klucel (hydroxypropylcellulose) (HPC)",100 % of control
same,T/C,"dose: 25.0 mg/kg/injection, schedule: Q01DX009 (ip), vehicle: Klucel (hydroxypropylcellulose) (HPC)",102 % of control
same,T/C,"dose: 50.0 mg/kg/injection, schedule: Q01DX009 (ip), vehicle: Klucel (hydroxypropylcellulose) (HPC)",102 % of control
same,T/C,[2],105 % of control
c1cncc(C2OCCO2)c1,T/C,[10],98 % of control
same,T/C,"dose: 200.0 mg/kg/injection, schedule: Q04DX003 (ip), vehicle: saline",92 % of control
same,T/C,"dose: 400.0 mg/kg/injection, schedule: Q04DX003 (ip), vehicle: saline",105 % of control
Cc1ccc(C(=O)C=Nc2ccc(O)cc2)cc1,T/C,"dose: 12.5 mg/kg/injection, schedule: Q04DX002 (ip), vehicle: Klucel (hydroxypropylcellulose) (HPC)",94 % of control
same,T/C,"dose: 25.0 mg/kg/injection, schedule: Q04DX002 (ip), vehicle: Klucel (hydroxypropylcellulose) (HPC)",97 % of control
same,T/C,"dose: 50.0 mg/kg/injection, schedule: Q04DX002 (ip), vehicle: Klucel (hydroxypropylcellulose) (HPC)",102 % of control
O=[N+]([O-])c1cc(S(=O)(=O)F)ccc1S,T/C,[1],102 % of control
same,T/C,[2],100 % of control
O=C(O)c1c(O)c2cc([N+](=O)[O-])ccc2oc1=O,T/C,[11],89 % of control
same,T/C,[12],95 % of control and 111 % of control
same,T/C,[13],103 % of control
same,T/C,"dose: 200.0 mg/kg/injection, schedule: Q04DX002 (ip), vehicle: saline with Tween-80",114 % of control
same,T/C,[14],100 % of control
same,T/C,"dose: 400.0 mg/kg/injection, schedule: Q04DX002 (ip), vehicle: saline with Tween-80",115 % of control
c1ccc(-c2nnc3oc(-c4ccco4)nn23)cc1,T/C,[4],100 % of control
same,T/C,[7],96 % of control
same,T/C,[5],101 % of control
same,T/C,[8],102 % of control
same,T/C,[6],101 % of control
same,T/C,[9],94 % of control
CN(C)CCC[N+]1([O-])c2ccccc2CCc2ccccc21,T/C,"dose: 9.37 mg/kg/injection, schedule: Q01DX009 (ip), vehicle: saline",102 % of control
same,T/C,"dose: 18.75 mg/kg/injection, schedule: Q01DX009 (ip), vehicle: saline",108 % of control
same,T/C,"dose: 18.75 mg/kg/injection, schedule: Q04DX003 (ip), vehicle: saline",102 % of control
same,T/C,"dose: 37.5 mg/kg/injection, schedule: Q01DX009 (ip), vehicle: saline",97 % of control
same,T/C,"dose: 37.5 mg/kg/injection, schedule: Q04DX003 (ip), vehicle: saline",96 % of control
same,T/C,[15],102 % of control
same,T/C,"dose: 75.0 mg/kg/injection, schedule: Q04DX003 (ip), vehicle: saline",96 % of control
same,T/C,"dose: 150.0 mg/kg/injection, schedule: Q04DX003 (ip), vehicle: saline",88 % of control
OCCNc1ccccc1,T/C,[16],93 % of control
same,T/C,[17],101 % of control
Oc1ccc2ccccc2c1C=Nc1cccc(Cl)c1,T/C,"dose: 50.0 mg/kg/injection, schedule: Q04DX003 (ip), vehicle: Klucel (hydroxypropylcellulose) (HPC)",103 % of control
same,T/C,"dose: 100.0 mg/kg/injection, schedule: Q01DX001 (ip), vehicle: Klucel (hydroxypropylcellulose) (HPC)",113 % of control
same,T/C,[1],101 % of control
same,T/C,"dose: 200.0 mg/kg/injection, schedule: Q01DX001 (ip), vehicle: Klucel (hydroxypropylcellulose) (HPC)",107 % of control
same,T/C,[2],98 % of control
same,T/C,"dose: 400.0 mg/kg/injection, schedule: Q01DX001 (ip), vehicle: Klucel (hydroxypropylcellulose) (HPC)",101 % of control
CC(CN1c2ccccc2Sc2ccc(Cl)cc21)N(C)CCCl (configuration not stated),T/C,"dose: 75.0 mg/kg/injection, schedule: Q01DX001 (ip), vehicle: carboxymethylcellulose (CMC)",106 % of control and 114 % of control
CNC1CC2CCC(C2)C1(O)c1ccccc1 (configuration not stated),T/C,"dose: 25.0 mg/kg/injection, schedule: Q04DX003 (ip), vehicle: saline",91 % of control
same,T/C,"dose: 50.0 mg/kg/injection, schedule: Q04DX003 (ip), vehicle: saline",113 % of control
same,T/C,[16],100 % of control
same,T/C,[10],102 % of control
CCOC(=O)C(CC(C)C)NC(=O)c1ccc(C)c2c1Nc1c(c(C)c3oc(=O)c(C)nc3c1C(=O)NC(CC(C)C)C(=O)OCC)O2 (configuration not stated),T/C,"dose: 75.0 mg/kg/injection, schedule: Q01DX001 (ip), vehicle: other",91 % of control
same,T/C,"dose: 150.0 mg/kg/injection, schedule: Q01DX001 (ip), vehicle: other",86 % of control
same,T/C,"dose: 300.0 mg/kg/injection, schedule: Q01DX001 (ip), vehicle: other",88 % of control
CCCCCCP(=O)(CCCCCC)CCCCCC,T/C,"dose: 44.0 mg/kg/injection, schedule: Q01DX Z (ip), vehicle: methylcellulose (MC)",89 % of control
same,T/C,"dose: 55.0 mg/kg/injection, schedule: Q01DX Z (ip), vehicle: methylcellulose (MC)",161 % of control
same,T/C,"dose: 66.0 mg/kg/injection, schedule: Q01DX Z (ip), vehicle: methylcellulose (MC)",93 % of control
same,T/C,"dose: 83.0 mg/kg/injection, schedule: Q01DX Z (ip), vehicle: methylcellulose (MC)",172 % of control
same,T/C,"dose: 100.0 mg/kg/injection, schedule: Q01DX Z (ip), vehicle: methylcellulose (MC)",96 % of control
same,T/C,[1],97 % of control
same,T/C,[2],110 % of control
same,T/C,[3],90 % of control
CN1COc2c(nc(-c3ccccc3)[nH]c2=O)C1,T/C,"dose: 50.0 mg/kg/injection, schedule: Q01DX001 (ip), vehicle: carboxymethylcellulose (CMC)",101 % of control
same,T/C,[11],98 % of control
same,T/C,[13],98 % of control
same,T/C,[14],95 % of control
CC(=O)OCCN(C)C,T/C,[15],104 % of control
same,T/C,[18],100 % of control
same,T/C,"dose: 150.0 mg/kg/injection, schedule: Q01DX009 (ip), vehicle: saline",101 % of control
same,T/C,[19],110 % of control
same,T/C,"dose: 300.0 mg/kg/injection, schedule: Q01DX009 (ip), vehicle: saline",101 % of control
same,T/C,"dose: 400.0 mg/kg/injection, schedule: Q04DX002 (ip), vehicle: saline",113 % of control
C/C(CC(C)C)=N/O,T/C,[16],95 % of control
same,T/C,[17],97 % of control
same,T/C,"dose: 400.0 mg/kg/injection, schedule: Q01DX001 (ip), vehicle: saline",92 % of control
O=C1OC(=O)c2cscc21,T/C,[7],88 % of control
same,T/C,[8],94 % of control
CCCCN(C=S)CCCC,T/C,"dose: 25.0 mg/kg/injection, schedule: Q04DX002 (ip), vehicle: saline with Tween-80",98 % of control
same,T/C,"dose: 50.0 mg/kg/injection, schedule: Q04DX002 (ip), vehicle: saline with Tween-80",95 % of control
same,T/C,[12],102 % of control
same,T/C,[7],92 % of control
O=C(O)c1cc(Br)ccc1O,T/C,"dose: 100.0 mg/kg/injection, schedule: Q04DX002 (ip), vehicle: Klucel (hydroxypropylcellulose) (HPC)",98 % of control
same,T/C,"dose: 200.0 mg/kg/injection, schedule: Q04DX002 (ip), vehicle: Klucel (hydroxypropylcellulose) (HPC)",98 % of control
same,T/C,"dose: 400.0 mg/kg/injection, schedule: Q04DX002 (ip), vehicle: Klucel (hydroxypropylcellulose) (HPC)",102 % of control
CCCC(NC(=O)CN)C(=O)O (configuration not stated),T/C,"dose: 50.0 mg/kg/injection, schedule: Q04DX002 (ip), vehicle: saline",96 % of control
same,T/C,[18],101 % of control
same,T/C,[19],96 % of control
CC(=O)N(C)c1ccccc1,T/C,[18],99 % of control
